Source: patent publication US11021457B2, “Class of isoindolone-imide ring-1,3-dione-2-ene compounds, composition and use thereof” (WIGEN BIOMEDICINE TECHNOLOGY (SHANGHAI) CO., LTD., priority 2017, dated 2021)
Like-named read-outs stand apart in the source and are kept apart here.

Columns and labels:
[1] = test system: SU-DHL6; test: Inhibition of tumor cell proliferation, CellTiter-Glo, SU-DHL6; assay type: cell-based; conditions: compound concentration 50 μM, 72 hours; for cell survival rate (% of control) at 50 µM: Homo sapiens, SU-DHL-6, read-out: Inhibitory activity against proliferation (cell survival rate) SU-DHL6
In short: (§1)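 Cells seeded at 2000-10000 per well, treated immediately (suspension) or after adherence (adherent) and cultured at 37° C, 5% CO2. Viability read by CellTiter-Glo at 72 h as blank-corrected survival rate vs control. Scored at 50 μM compound: survival 60-<90% +, >30-60% ++, ≤30% +++.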

[2] = test system: RPMI-8226; test: Inhibition of tumor cell proliferation, CellTiter-Glo, RPMI-8226; assay type: cell-based; conditions: compound concentration 50 μM, 72 hours; for cell survival rate (% of control) at 50 µM: Homo sapiens, RPMI-8226, read-out: Inhibitory activity against proliferation (cell survival rate) RPMI-8226
In short: as §1

[3] = test system: K562; test: Inhibition of tumor cell proliferation, CellTiter-Glo, K562; assay type: cell-based; conditions: compound concentration 50 μM, 72 hours; for cell survival rate (%) at 50 µM: Homo sapiens, K562, read-out: Inhibitory activity against proliferation (cell survival rate) K562
In short: as §1

[4] = test system: A549; test: Inhibition of tumor cell proliferation, CellTiter-Glo, A549; assay type: cell-based; conditions: compound concentration 50 μM, 72 hours; for cell survival rate (% of control) at 50 µM: Homo sapiens, A549, read-out: Inhibitory activity against proliferation (cell survival rate) A549
In short: as §1

[5] = test system: MDA-MB-453; test: Inhibition of tumor cell proliferation, CellTiter-Glo, MDA-MB-453; assay type: cell-based; conditions: compound concentration 50 μM, 72 hours; for cell survival rate (%) at 50 µM: Homo sapiens, MDA-MB-453, read-out: Inhibitory activity against proliferation (cell survival rate) MDA-MB-453
In short: as §1

[6] = test system: BxPC-3; test: Inhibition of tumor cell proliferation, CellTiter-Glo, BxPC-3; assay type: cell-based; conditions: compound concentration 50 μM, 72 hours; for cell survival rate (%) at 50 µM: Homo sapiens, BXPC-3, read-out: Inhibitory activity against proliferation (cell survival rate) BxPC-3
In short: as §1

[7] = biological target: LC3B (Homo sapiens (Human), UniProt Q9GZQ8); test: Fluorescence polarization experiment targeting LC3B (GST-LC3B with FITC-labeled peptide)
[8] = GST-LC3B 180 nM, FITC-labeled peptide 18 nM, 25° C.

IC50 [7] [µM] | Structure (SMILES) | Inhibitory activity against proliferation (cell survival rate) SU-DHL6 [1] | Inhibitory activity against proliferation (cell survival rate) RPMI-8226 [2] | Inhibitory activity against proliferation (cell survival rate) K562 [3] | Inhibitory activity against proliferation (cell survival rate) A549 [4] | Inhibitory activity against proliferation (cell survival rate) MDA-MB-453 [5] | Inhibitory activity against proliferation (cell survival rate) BxPC-3 [6] | IC50 [7, 8] [µM] | cell survival rate (% of control) at 50 µM [1] [%] | cell survival rate (% of control) at 50 µM [2] [%] | cell survival rate (%) at 50 µM [3] [%] | cell survival rate (% of control) at 50 µM [4] [%] | cell survival rate (%) at 50 µM [5] [%] | cell survival rate (%) at 50 µM [6] [%]
– | O=C1CCC(N2C(=O)c3cccc(NC=C4C(=O)CC(c5cccc(Cl)c5Cl)CC4=O)c3C2=O)C(=O)N1 (stereo not drawn) [Compound 6] | + (60≤survival rate (%)<90) | + (60≤survival rate (%)<90) | + (60≤survival rate (%)<90) | + (60≤survival rate (%)<90) | + (60≤survival rate (%)<90) | + (60≤survival rate (%)<90) | < 3 | – | – | – | – | – | –
– | O=C1CCC(N2Cc3c(NC=C4C(=O)CC(c5cccc6[nH]ncc56)CC4=O)cccc3C2=O)C(=O)N1 (stereo not drawn) [Compound 39] | ++ (30<survival rate (%)≤60) | + (60≤survival rate (%)<90) | +++ (survival rate (%)≤30) | + (60≤survival rate (%)<90) | +++ (survival rate (%)≤30) | ++ (30<survival rate (%)≤60) | < 3 | – | – | – | – | – | –
– | O=C1CCC(N2Cc3c(NC=C4C(=O)CC(c5c[nH]c6ccccc56)CC4=O)cccc3C2=O)C(=O)N1 (stereo not drawn) [Compound 38] | +++ (survival rate (%)≤30) | +++ (survival rate (%)≤30) | +++ (survival rate (%)≤30) | +++ (survival rate (%)≤30) | +++ (survival rate (%)≤30) | ++ (30<survival rate (%)≤60) | < 3 | – | – | – | – | – | –
– | O=C1CCC(N2Cc3c(NC(=O)CN4CCN(CCNC=C5C(=O)CC(c6c(Cl)ccc(C(F)(F)F)c6Cl)CC5=O)CC4)cccc3C2=O)C(=O)N1 (stereo not drawn) [Compound 158] | +++ (survival rate (%)≤30) | ++ (30<survival rate (%)≤60) | ++ (30<survival rate (%)≤60) | +++ (survival rate (%)≤30) | +++ (survival rate (%)≤30) | + (60≤survival rate (%)<90) | < 3 | – | – | – | – | – | –
– | O=C1CCC(N2Cc3c(NC=C4C(=O)CC(c5c(C(F)(F)F)ccc(Cl)c5F)CC4=O)cccc3C2=O)C(=O)N1 (stereo not drawn) [Compound 142] | +++ (survival rate (%)≤30) | +++ (survival rate (%)≤30) | +++ (survival rate (%)≤30) | + (60≤survival rate (%)<90) | +++ (survival rate (%)≤30) | + (60≤survival rate (%)<90) | < 3 | – | – | – | – | – | –
– | O=C1CCC(N2Cc3c(NC(=O)CCNC=C4C(=O)CC(c5ccccc5)CC4=O)cccc3C2=O)C(=O)N1 (stereo not drawn) [Compound 45] | + (60≤survival rate (%)<90) | + (60≤survival rate (%)<90) | + (60≤survival rate (%)<90) | + (60≤survival rate (%)<90) | + (60≤survival rate (%)<90) | + (60≤survival rate (%)<90) | 100 to 1000 | – | – | – | – | – | –
– | O=C1CCC(N2Cc3c(NC=C4C(=O)CC(c5c[nH]c6cccc(Cl)c56)CC4=O)cccc3C2=O)C(=O)N1 (stereo not drawn) [Compound 150] | +++ (survival rate (%)≤30) | ++ (30<survival rate (%)≤60) | ++ (30<survival rate (%)≤60) | +++ (survival rate (%)≤30) | +++ (survival rate (%)≤30) | + (60≤survival rate (%)<90) | < 3 | – | – | – | – | – | –
– | O=C1CCC(N2Cc3c(NC(=O)COCCNC=C4C(=O)CC(c5ccccc5)CC4=O)cccc3C2=O)C(=O)N1 (stereo not drawn) [Compound 48] | +++ (survival rate (%)≤30) | +++ (survival rate (%)≤30) | +++ (survival rate (%)≤30) | +++ (survival rate (%)≤30) | +++ (survival rate (%)≤30) | + (60≤survival rate (%)<90) | 100 to 1000 | – | – | – | – | – | –
100 to 1000 | O=C1CCC(N2Cc3c(NC=C4C(=O)CCCC4=O)cccc3C2=O)C(=O)N1 (stereo not drawn) [Compound 132] | – | – | – | – | – | – | – | ≤ 30 | ≤ 30 | 30 to 60 | 60 to 90 | 60 to 90 | 30 to 60
– | O=C1CCC(N2Cc3c(NC=C4C(=O)CC(c5cc(C(F)(F)F)ccc5Cl)CC4=O)cccc3C2=O)C(=O)N1 (stereo not drawn) [Compound 144] | +++ (survival rate (%)≤30) | +++ (survival rate (%)≤30) | +++ (survival rate (%)≤30) | + (60≤survival rate (%)<90) | +++ (survival rate (%)≤30) | + (60≤survival rate (%)<90) | < 3 | – | – | – | – | – | –
– | O=C1CCC(N2Cc3c(NC(=O)CCCCNC=C4C(=O)CC(c5ccccc5)CC4=O)cccc3C2=O)C(=O)N1 (stereo not drawn) [Compound 46] | + (60≤survival rate (%)<90) | ++ (30<survival rate (%)≤60) | ++ (30<survival rate (%)≤60) | +++ (survival rate (%)≤30) | +++ (survival rate (%)≤30) | + (60≤survival rate (%)<90) | 100 to 1000 | – | – | – | – | – | –
– | O=C1CC(c2ccccc2)CC(=O)C1=CNCCN1CCN(C(=O)N2C(=O)CCC(N3C(=O)c4ccccc4C3=O)C2=O)CC1 (stereo not drawn) [Compound 101] | ++ (30<survival rate (%)≤60) | +++ (survival rate (%)≤30) | +++ (survival rate (%)≤30) | +++ (survival rate (%)≤30) | ++ (30<survival rate (%)≤60) | + (60≤survival rate (%)<90) | 15 to 100 | – | – | – | – | – | –
– | O=C1CCC(N2Cc3c(NC=C4C(=O)CC(c5cccc6[nH]ccc56)CC4=O)cccc3C2=O)C(=O)N1 (stereo not drawn) [Compound 3] | +++ (survival rate (%)≤30) | + (60≤survival rate (%)<90) | + (60≤survival rate (%)<90) | + (60≤survival rate (%)<90) | ++ (30<survival rate (%)≤60) | + (60≤survival rate (%)<90) | < 3 | – | – | – | – | – | –
100 to 1000 | CCCNC(=O)C1CC(=O)C(=CNc2cccc3c2CN(C2CCC(=O)NC2=O)C3=O)C(=O)C1 (stereo not drawn) [Compound 114] | – | – | – | – | – | – | – | 30 to 60 | 60 to 90 | 30 to 60 | 30 to 60 | 60 to 90 | 60 to 90
– | O=C1CCC(N2Cc3c(NC=C4C(=O)CC(c5c(Br)ccc6[nH]cc(Cl)c56)CC4=O)cccc3C2=O)C(=O)N1 (stereo not drawn) [Compound 14] | ++ (30<survival rate (%)≤60) | + (60≤survival rate (%)<90) | + (60≤survival rate (%)<90) | +++ (survival rate (%)≤30) | +++ (survival rate (%)≤30) | + (60≤survival rate (%)<90) | < 3 | – | – | – | – | – | –
